These results are taken from patent US11987588B2, “Modulators of the beta-3 adrenergic receptor useful for the treatment or prevention of heart failure and disorders related thereto” (Arena Pharmaceuticals, Inc., priority 2017, dated 2024).

For the test, the target named is Beta-3 Adrenergic Receptor (Homo sapiens (Human), UniProt P13945). In words: Homogeneous Time-Resolved Fluorescence (HTRF) cAMP antagonist assay, IC50 determination. The test is classed as cell-based. The note with it: CHO-K1 cells stably expressing recombinant receptor, isoproterenol at EC90. The gist of the method: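 Antagonist mode: isoproterenol at its predetermined EC90 added after compound to recombinant CHO-K1 cells in IBMX-containing PBS, 1 h, room temperature. Compounds tested as 5-fold, 10-point dilutions, top final typically 10 or 100 μM. HTRF signal converted to cAMP via standard curve, giving IC50.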
Beta-3 Adrenergic Receptor, sequence (P13945 whole entry, species assumed): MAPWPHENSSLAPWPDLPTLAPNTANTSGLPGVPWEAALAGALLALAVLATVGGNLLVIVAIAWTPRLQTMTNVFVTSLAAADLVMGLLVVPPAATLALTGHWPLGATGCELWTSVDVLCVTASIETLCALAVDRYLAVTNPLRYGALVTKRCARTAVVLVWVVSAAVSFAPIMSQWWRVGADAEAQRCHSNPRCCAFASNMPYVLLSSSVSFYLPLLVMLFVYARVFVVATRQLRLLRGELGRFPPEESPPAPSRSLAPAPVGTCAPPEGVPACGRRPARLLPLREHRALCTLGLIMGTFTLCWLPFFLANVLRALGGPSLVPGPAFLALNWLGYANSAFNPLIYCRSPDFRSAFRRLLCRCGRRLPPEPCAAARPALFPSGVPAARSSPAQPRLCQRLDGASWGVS
(In TR-FRET formats the signal depends on donor and acceptor labels being close together.)
With `CN(C)CCNS(=O)(=O)c1cccc(OC[C@@H](O)CNC2COC3(CCN(S(=O)(=O)c4ccc5ccccc5c4)CC3)C2)c1` (stereo partly drawn) [Compound 167, N-(2-(dimethylamino)ethyl)-3-((2S)-2-hydroxy-3-(8-(naphthalen-2-ylsulfonyl)-1-oxa-8-azaspiro[4.5]decan-3-ylamino)propoxy)benzenesulfonamide], the 50% inhibitory concentration (IC50) (commonly the midpoint of a concentration-inhibition curve) is 2.15 µM.

For `CNS(=O)(=O)c1cccc(OC[C@@H](O)CN[C@H]2COC3(CCN(S(=O)(=O)c4cccc(-c5cnn(C)c5)c4)CC3)C2)c1` [Compound 215, 3-((S)-2-hydroxy-3-((R)-8-(3-(1-methyl-1H-pyrazol-4-yl)phenylsulfonyl)-1-oxa-8-azaspiro[4.5]decan-3-ylamino)propoxy)-N-methylbenzenesulfonamide], the 50% inhibitory concentration (IC50) amounted to 0.00741 µM.

Take `CCNS(=O)(=O)c1cccc(OC[C@@H](O)CNC2COC3(CCN(S(=O)(=O)c4cccc(-c5ccc(CC#N)cc5)c4)CC3)C2)c1` (stereo partly drawn) [Compound 214, 3-((2S)-3-(8-(4′-(cyanomethyl)biphenyl-3-ylsulfonyl)-1-oxa-8-azaspiro[4.5]decan-3-ylamino)-2-hydroxypropoxy)-N-ethylbenzenesulfonamide]: the IC50 worked out at 0.0314 µM.

For the compound `CNS(=O)(=O)c1cccc(OC[C@@H](O)CNC2COC3(CCN(S(=O)(=O)c4ccc(N(C)C)nc4)CC3)C2)c1` (stereo partly drawn) [Compound 422, 3-((2S)-3-(8-(6-(dimethylamino)pyridin-3-ylsulfonyl)-1-oxa-8-azaspiro[4.5]decan-3-ylamino)-2-hydroxypropoxy)-N-methylbenzenesulfonamide], the IC50 was 0.0167 µM.

For the compound `CN(C)S(=O)(=O)c1cccc(OC[C@@H](O)CNC2COC3(CCN(S(=O)(=O)c4ccc5ccccc5c4)CC3)C2)c1` (stereo partly drawn) [Compound 4, 3-((2S)-2-hydroxy-3-(8-(naphthalen-2-ylsulfonyl)-1-oxa-8-azaspiro[4.5]decan-3-ylamino)propoxy)-N,N-dimethylbenzenesulfonamide], the IC50 came to 0.0112 µM.

For the compound `CN1CCOc2ncc(S(=O)(=O)N3CCC4(CC3)C[C@@H](NC[C@H](O)COc3cccc(S(=O)(=O)NCCF)c3)CO4)cc21` [Compound 457, N-(2-fluoroethyl)-3-((S)-2-hydroxy-3-((R)-8-(1-methyl-2,3-dihydro-1H-pyrido[2,3-b][1,4]oxazin-7-ylsulfonyl)-1-oxa-8-azaspiro[4.5]decan-3-ylamino)propoxy)benzenesulfonamide], the IC50 was 0.0296 µM.

As for `CNS(=O)(=O)c1cccc(OC[C@@H](O)CNC2COC3(CCN(S(=O)(=O)c4cccc(-c5ccc(-c6noc(C)n6)cc5)c4)CC3)C2)c1` (stereo partly drawn) [Compound 380, 3-((2S)-2-hydroxy-3-(8-(4′-(5-methyl-1,2,4-oxadiazol-3-yl)biphenyl-3-ylsulfonyl)-1-oxa-8-azaspiro[4.5]decan-3-ylamino)propoxy)-N-methylbenzenesulfonamide], the IC50 was 0.102 µM.

As for `CNS(=O)(=O)c1cccc(OC[C@@H](O)CNC2COC3(CCN(S(=O)(=O)c4cn[nH]c4)CC3)C2)c1` (stereo partly drawn) [Compound 131, 3-((2S)-3-(8-(1H-pyrazol-4-ylsulfonyl)-1-oxa-8-azaspiro[4.5]decan-3-ylamino)-2-hydroxypropoxy)-N-methylbenzenesulfonamide], the IC50 is 0.0847 µM.

`CNS(=O)(=O)c1cccc(OC[C@@H](O)CNC2COC3(CCN(S(=O)(=O)c4cccc(-c5cccc(COC)c5)c4)CC3)C2)c1` (stereo partly drawn) [Compound 65, 3-((2S)-2-hydroxy-3-(8-(3′-(methoxymethyl)biphenyl-3-ylsulfonyl)-1-oxa-8-azaspiro[4.5]decan-3-ylamino)propoxy)-N-methylbenzenesulfonamide]: the half-maximal inhibitory concentration (IC50) was 0.0856 µM.

`CNS(=O)(=O)c1cccc(OC[C@@H](O)CNC2COC3(CCN(S(=O)(=O)c4cccc(Cl)c4)CC3)C2)c1` (stereo partly drawn) [Compound 15, 3-((2S)-3-(8-(3-chlorophenylsulfonyl)-1-oxa-8-azaspiro[4.5]decan-3-ylamino)-2-hydroxypropoxy)-N-methylbenzenesulfonamide]: the IC50 worked out at 0.0124 µM.

With `CNS(=O)(=O)c1cccc(OC[C@@H](O)CNC2COC3(CCN(S(=O)(=O)c4cc(C)cc(F)c4)CC3)C2)c1` (stereo partly drawn) [Compound 179, 3-((2S)-3-(8-(3-fluoro-5-methylphenylsulfonyl)-1-oxa-8-azaspiro[4.5]decan-3-ylamino)-2-hydroxypropoxy)-N-methylbenzenesulfonamide], the IC50 is 0.00815 µM.

`CNS(=O)(=O)c1cccc(OC[C@@H](O)CNC2COC3(CCN(S(=O)(=O)c4ccc5nc[nH]c5c4)CC3)C2)c1` (stereo partly drawn) [Compound 146, 3-((2S)-3-(8-(1H-benzo[d]imidazol-6-ylsulfonyl)-1-oxa-8-azaspiro[4.5]decan-3-ylamino)-2-hydroxypropoxy)-N-methylbenzenesulfonamide]: the IC50 came to 0.0362 µM.

For the compound `CCn1cc(S(=O)(=O)N2CCC3(CC2)C[C@@H](NC[C@H](O)COc2cccc(S(=O)(=O)NC)c2)CO3)c(=O)c2ccccc21` [Compound 492, 3-((S)-3-((R)-8-(1-ethyl-4-oxo-1,4-dihydroquinolin-3-ylsulfonyl)-1-oxa-8-azaspiro[4.5]decan-3-ylamino)-2-hydroxypropoxy)-N-methylbenzenesulfonamide], the IC50 came to 0.033 µM.

Consider `CNS(=O)(=O)c1cccc(OC[C@@H](O)CN[C@H]2COC3(CCN(S(=O)(=O)c4cccc5nsnc45)CC3)C2)c1` [Compound 245, 3-((S)-3-((R)-8-(benzo[c][1,2,5]thiadiazol-4-ylsulfonyl)-1-oxa-8-azaspiro[4.5]decan-3-ylamino)-2-hydroxypropoxy)-N-methylbenzenesulfonamide], for which the IC50 came to 0.0155 µM.

For the compound `CNS(=O)(=O)c1cccc(OC[C@@H](O)CNC2COC3(CCN(S(=O)(=O)c4cc(C)cc(C)c4)CC3)C2)c1` (stereo partly drawn) [Compound 23, 3-((2S)-3-(8-(3,5-dimethylphenylsulfonyl)-1-oxa-8-azaspiro[4.5]decan-3-ylamino)-2-hydroxypropoxy)-N-methylbenzenesulfonamide], the half-maximal inhibitory concentration (IC50) turned out to be 0.0138 µM.

With `CNS(=O)(=O)c1cccc(OC[C@@H](O)CNC2COC3(CCN(S(=O)(=O)c4cccc(-c5ccc(CC#N)cc5)c4)CC3)C2)c1` (stereo partly drawn) [Compound 117, 3-((2S)-3-(8-(4′-(cyanomethyl)biphenyl-3-ylsulfonyl)-1-oxa-8-azaspiro[4.5]decan-3-ylamino)-2-hydroxypropoxy)-N-methylbenzenesulfonamide], the IC50 was 0.0145 µM.

As to `CNS(=O)(=O)c1cccc(OC[C@@H](O)CN[C@H]2COC3(CCN(c4nccc(C)n4)CC3)C2)c1` [Compound 575, 3-((S)-2-hydroxy-3-((R)-8-(4-methylpyrimidin-2-yl)-1-oxa-8-azaspiro[4.5]decan-3-ylamino)propoxy)-N-methylbenzenesulfonamide], the IC50 was 0.216 µM.

As to `CNS(=O)(=O)c1cccc(OC[C@@H](O)CNC2COC3(CCN(S(=O)(=O)c4ccc(O)nc4)CC3)C2)c1` (stereo partly drawn) [Compound 395, 3-((2S)-2-hydroxy-3-(8-(6-hydroxypyridin-3-ylsulfonyl)-1-oxa-8-azaspiro[4.5]decan-3-ylamino)propoxy)-N-methylbenzenesulfonamide], the half-maximal inhibitory concentration (IC50) was found to be 0.206 µM.

For `CNS(=O)(=O)c1cccc(OC[C@@H](O)CN[C@@H]2COC3(CCN(S(=O)(=O)c4cccc(-c5ccc(CN)cc5)c4)CC3)C2)c1` [Compound 288, 3-((S)-3-((S)-8-(4′-(aminomethyl)biphenyl-3-ylsulfonyl)-1-oxa-8-azaspiro[4.5]decan-3-ylamino)-2-hydroxypropoxy)-N-methylbenzenesulfonamide], the IC50 is 0.0134 µM.

Consider `CNS(=O)(=O)c1cccc(OC[C@@H](O)CN[C@@H]2COC3(CCN(S(=O)(=O)c4cccc(-c5ccc(CN)cc5)c4OC)CC3)C2)c1` [Compound 448, 3-((S)-3-((S)-8-(4′-(aminomethyl)-2-methoxybiphenyl-3-ylsulfonyl)-1-oxa-8-azaspiro[4.5]decan-3-ylamino)-2-hydroxypropoxy)-N-methylbenzenesulfonamide], for which the IC50 came out at 0.032 µM.

With `CNS(=O)(=O)c1cccc(OC[C@@H](O)CN[C@H]2COC3(CCN(S(=O)(=O)c4cnc5nc[nH]c5c4)CC3)C2)c1` [Compound 495, 3-((S)-3-((R)-8-(1H-imidazo[4,5-b]pyridin-6-ylsulfonyl)-1-oxa-8-azaspiro[4.5]decan-3-ylamino)-2-hydroxypropoxy)-N-methylbenzenesulfonamide], the concentration for half-maximal inhibition (IC50) is 0.0506 µM.

For `CNS(=O)(=O)c1cccc(OC[C@@H](O)CNC2COC3(CCN(S(=O)(=O)c4cccc(-c5cnn(CC6CC6)c5)c4)CC3)C2)c1` (stereo partly drawn) [Compound 82, 3-((2S)-3-(8-(3-(1-(cyclopropylmethyl)-1H-pyrazol-4-yl)phenylsulfonyl)-1-oxa-8-azaspiro[4.5]decan-3-ylamino)-2-hydroxypropoxy)-N-methylbenzenesulfonamide], the IC50 was found to be 0.0159 µM.

`CNS(=O)(=O)c1cccc(OC[C@@H](O)CNC2COC3(CCN(S(=O)(=O)c4cccc(-c5ccc(CNCCF)cc5)c4)CC3)C2)c1` (stereo partly drawn) [Compound 347, 3-((2S)-3-(8-(4′-((2-fluoroethylamino)methyl)biphenyl-3-ylsulfonyl)-1-oxa-8-azaspiro[4.5]decan-3-ylamino)-2-hydroxypropoxy)-N-methylbenzenesulfonamide]: the IC50 amounted to 0.0335 µM.

Turning to `CNS(=O)(=O)c1cccc(OC[C@@H](O)CN[C@H]2COC3(CCN(c4nccc(Cc5ccccc5)n4)CC3)C2)c1` [Compound 573, 3-((S)-3-((R)-8-(4-benzylpyrimidin-2-yl)-1-oxa-8-azaspiro[4.5]decan-3-ylamino)-2-hydroxypropoxy)-N-methylbenzenesulfonamide], the IC50 came out at 0.115 µM.

For the compound `CNS(=O)(=O)c1cccc(OC[C@@H](O)CN[C@@H]2COC3(CCN(S(=O)(=O)c4ccc5c(c4)NC(=O)CO5)CC3)C2)c1` [Compound 278, 3-((S)-2-hydroxy-3-((S)-8-(3-oxo-3,4-dihydro-2H-benzo[b][1,4]oxazin-6-ylsulfonyl)-1-oxa-8-azaspiro[4.5]decan-3-ylamino)propoxy)-N-methylbenzenesulfonamide], the IC50 turned out to be 0.0128 µM.
